The values below come from US10266495B2, “Phenyl quinolinone derivatives as mutant-isocitrate dehydrogenase inhibitors” (FORMA TM2, Inc., priority 2014, dated 2019).

The structures appear in SMILES notation. Some results are limits rather than exact numbers.

Assay [1] has as its target IDH1-R132H recombinant protein (Homo sapiens, UniProt O75874, R132H). Briefly: IDH1-R132H enzymatic assay (NADPH consumption, diaphorase/resazurin readout). Format: biochemical. The settings on record: read-out: Enzyme IDH1 R132H IC50 Range. The protocol:
(§1) Assays were performed in a 384-well black plate. An aliquot of 250 nL of compound was incubated with 10 μL of 30 nM IDH1-R132H or 10 nM IDH1-R132C recombinant protein in assay buffer (50 mM Tris pH=7.5, 150 mM NaCl, 5 mM MgCl2, 0.1% (w/v) Bovine Serum Albumin, and 0.01% Triton X-100) in each well at 25° C. for 15 minutes. After the plate was centrifuged briefly, an aliquot of 10 μL of 2 mM α-ketoglutarate and 20 μM NADPH solution prepared in assay buffer was then added to each well and the reaction was maintained at 25° C. for 45 minutes. An aliquot of 10 μL of diaphorase solution (0.15 U/mL diaphorase and 30 μM Resazurin in assay buffer) was added to each well. […] The IC50 of a given compound was calculated by fitting the dose response curve of inhibition of NADPH consumption at a given concentration with the four parameter logistic equation.
(In general: Alamar Blue is a resazurin reagent that responds to reducing activity.)

Assay [2] addresses IDH1-R132C recombinant protein (Homo sapiens, UniProt O75874, R132C). Briefly: IDH1-R132C enzymatic assay (NADPH consumption, diaphorase/resazurin readout). Particulars: read-out: Enzyme IDH1 R132C IC50 Range. It counts as biochemical. The protocol: as §1

IDH1-R132H recombinant protein, sequence (O75874 whole entry R132H): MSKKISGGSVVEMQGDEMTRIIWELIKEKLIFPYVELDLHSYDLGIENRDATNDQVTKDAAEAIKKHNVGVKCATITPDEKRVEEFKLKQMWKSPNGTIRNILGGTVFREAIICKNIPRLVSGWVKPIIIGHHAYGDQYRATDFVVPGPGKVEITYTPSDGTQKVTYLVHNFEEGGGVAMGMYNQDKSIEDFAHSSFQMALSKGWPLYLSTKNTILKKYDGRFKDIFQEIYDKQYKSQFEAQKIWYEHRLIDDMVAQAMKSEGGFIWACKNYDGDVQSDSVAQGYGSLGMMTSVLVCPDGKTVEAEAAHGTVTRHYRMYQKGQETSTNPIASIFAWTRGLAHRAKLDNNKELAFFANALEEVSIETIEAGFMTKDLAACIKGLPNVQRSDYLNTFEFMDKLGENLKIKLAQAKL
IDH1-R132C recombinant protein, sequence (O75874 whole entry R132C): as the sequence (O75874 whole entry R132H) above, with H132C counted along it

Usually IC50 stands for the concentration that inhibits the measured activity by half. On to `COc1cc(NC(C)c2cc3cc(Cl)ccc3[nH]c2=O)ccc1C#N` (racemic) [Compound I-1, 4-{[1-(6-chloro-2-oxo-1,2-dihydroquinolin-3-yl)ethyl]amino}-2-methoxybenzonitrile], for which the IC50 in assay [1] and in assay [2] was 0.01 to 0.1 µM each time. With `COc1cc(NC(C)c2cc3cc(Cl)c(OCc4ccccn4)cc3[nH]c2=O)ccc1C#N` (stereo not drawn) [Compound I-5, 4-({1-[6-chloro-2-oxo-7-(pyridin-2-ylmethoxy)-1,2-dihydroquinolin-3-yl]ethyl}amino)-2-methoxybenzonitrile], the IC50 in assay [1] lay within 0.01 to 0.1 µM; in assay [2], 0.1 to 1 µM. Taken in the same sequence, the figures for `N#Cc1ccc(NCc2cc3cc(Cl)ccc3[nH]c2=O)cc1O` [Compound I-8, 4-{[(6-chloro-2-oxo-1,2-dihydroquinolin-3-yl)methyl]amino}-2-hydroxybenzonitrile] were 0.1 to 1 µM and above 1 µM. In the same order, the values of `COc1cc(NCc2cc3cc(Cl)ccc3[nH]c2=O)cc(OC)c1C#N` [Compound I-9, 4-{[(6-chloro-2-oxo-1,2-dihydroquinolin-3-yl)methyl]amino}-2,6-dimethoxybenzonitrile] are 0.1 to 1 µM and above 1 µM. Taken in the same sequence, the figures for `N#Cc1ccc(NCc2cc3cc(Cl)ccc3[nH]c2=O)cc1OC(F)(F)F` [Compound I-10, 4-{[(6-chloro-2-oxo-1,2-dihydroquinolin-3-yl)methyl]amino}-2-(trifluoromethoxy)benzonitrile] were 0.1 to 1 µM and above 1 µM. Turning to `COc1cc(NCc2cc3cc(C)ccc3[nH]c2=O)ccc1-n1cnnn1` [Compound I-16, 3-({[3-methoxy-4-(1H-1,2,3,4-tetrazol-1-yl)phenyl]amino}methyl)-6-methyl-1,2-dihydroquinolin-2-one], the IC50 in assay [1] is 0.1 to 1 µM; in assay [2], above 1 µM. Taken in the same sequence, the figures for `COc1cc2[nH]c(=O)c(CNc3ccc(C#N)c(OC)c3)cc2cc1Cl` [Compound I-21, 4-{[(6-chloro-7-methoxy-2-oxo-1,2-dihydroquinolin-3-yl)methyl]amino}-2-methoxybenzonitrile] were 0.1 to 1 µM and 0.1 to 1 µM. Taken in the same sequence, the figures for `COc1cc(NCc2cc3ccc(C)cc3[nH]c2=O)ccc1-n1cnnn1` [Compound I-22, 3-({[3-methoxy-4-(1H-1,2,3,4-tetrazol-1-yl)phenyl]amino}methyl)-7-methyl-1,2-dihydroquinolin-2-one] were 0.1 to 1 µM and above 1 µM. Taken in the same sequence, the figures for `COc1cc(NCc2cc3cc(C(C)(C)C)ccc3[nH]c2=O)ccc1C#N` [Compound I-24, 4-{[(6-tert-butyl-2-oxo-1,2-dihydroquinolin-3-yl)methyl]amino}-2-methoxybenzonitrile] were 0.01 to 0.1 µM and above 1 µM. `COc1cc(NCc2cc3cc(C(F)(F)F)ccc3[nH]c2=O)ccc1C#N` [Compound I-25, 2-methoxy-4-({[2-oxo-6-(trifluoromethyl)-1,2-dihydroquinolin-3-yl]methyl}amino)benzonitrile]: the figures for the IC50 in assay [1] and in assay [2] were 0.01 to 0.1 µM and above 1 µM, respectively. Taken in the same sequence, the figures for `COc1cc2[nH]c(=O)c(CNc3ccc(C#N)c(OC)c3)cc2cc1F` [Compound I-26, 4-{[(6-fluoro-7-methoxy-2-oxo-1,2-dihydroquinolin-3-yl)methyl]amino}-2-methoxybenzonitrile] were 0.01 to 0.1 µM and above 1 µM. Taken in the same sequence, the figures for `COc1cc(NCc2cc3cc(F)ccc3[nH]c2=O)ccc1C#N` [Compound I-27, 4-{[(6-fluoro-2-oxo-1,2-dihydroquinolin-3-yl)methyl]amino}-2-methoxybenzonitrile] were above 1 µM and above 1 µM. `COc1cc(NCc2cc3ccc(O)cc3[nH]c2=O)ccc1C#N` [Compound I-30, 4-{[(7-hydroxy-2-oxo-1,2-dihydroquinolin-3-yl)methyl]amino}-2-methoxybenzonitrile]: the IC50 in assay [1] is 0.1 to 1 µM; in assay [2] it was above 1 µM.

Turning to `COc1cc(NCc2cc3cc(Cl)ccc3[nH]c2=O)ccc1-n1cnnn1` [Compound I-33, 6-chloro-3-({[3-methoxy-4-(1H-1,2,3,4-tetrazol-1-yl)phenyl]amino}methyl)-1,2-dihydroquinolin-2-one], the IC50 in assay [1] is 0.1 to 1 µM; in assay [2], above 1 µM. Regarding `Cc1cc(NCc2cc3cc(Cl)ccc3[nH]c2=O)ccc1C#N` [Compound I-36, 4-{[(6-chloro-2-oxo-1,2-dihydroquinolin-3-yl)methyl]amino}-2-methylbenzonitrile], the IC50 in assay [1] is 0.1 to 1 µM; in assay [2], above 1 µM. Taken in the same sequence, the figures for `Cc1nnnn1-c1ccc(NCc2cc3cc(Cl)ccc3[nH]c2=O)cc1` [Compound I-38, 6-chloro-3-({[4-(5-methyl-1H-1,2,3,4-tetrazol-1-yl)phenyl]amino}methyl)-1,2-dihydroquinolin-2-one] were 0.1 to 1 µM and above 1 µM. In the same order, the values of `COc1cc(NCc2cc3ccccc3[nH]c2=O)ccc1C#N` [Compound I-47, 2-methoxy-4-{[(2-oxo-1,2-dihydroquinolin-3-yl)methyl]amino}benzonitrile] are 0.1 to 1 µM and above 1 µM. In the same order, the values of `COc1cc(NCc2cc3cc(Cl)c(OCc4ccccn4)cc3[nH]c2=O)ccc1C#N` [Compound I-58, 4-({[6-chloro-2-oxo-7-(pyridin-2-ylmethoxy)-1,2-dihydroquinolin-3-yl]methyl}amino)-2-methoxybenzonitrile] are 0.01 to 0.1 µM and 0.1 to 1 µM.

As for `COc1cc(NCc2cc3cc(Cl)c(OCC(O)CN4CCOCC4)cc3[nH]c2=O)ccc1C#N` (stereo not drawn) [Compound I-59, 4-[({6-chloro-7-[2-hydroxy-3-(morpholin-4-yl)propoxy]-2-oxo-1,2-dihydroquinolin-3-yl}methyl)amino]-2-methoxybenzonitrile], the results for the IC50 in assay [1] and in assay [2] were 0.1 to 1 µM and above 1 µM, respectively. With `COc1cc(NCc2cc3cc(Cl)c(OCCN4CCOCC4)cc3[nH]c2=O)ccc1C#N` [Compound I-60, 4-[({6-chloro-7-[2-(morpholin-4-yl)ethoxy]-2-oxo-1,2-dihydroquinolin-3-yl}methyl)amino]-2-methoxybenzonitrile], the IC50 in assay [2] is 0.1 to 1 µM. `COc1cc(NCc2cc3cc(Cl)c(OCCN(C)C)cc3[nH]c2=O)ccc1C#N` [Compound I-61, 4-[({6-chloro-7-[2-(dimethylamino)ethoxy]-2-oxo-1,2-dihydroquinolin-3-yl}methyl)amino]-2-methoxybenzonitrile]: the IC50 is 0.01 to 0.1 µM in assay [1] and above 1 µM in assay [2]. Turning to `COc1cc(NCc2cc3cc(Cl)c(OCc4cccnc4)cc3[nH]c2=O)ccc1C#N` [Compound I-62, 4-({[6-chloro-2-oxo-7-(pyridin-3-ylmethoxy)-1,2-dihydroquinolin-3-yl]methyl}amino)-2-methoxybenzonitrile], the half-inhibitory concentration (IC50) was 0.01 to 0.1 µM in assay [1] and above 1 µM in assay [2]. In the same order, the values of `COc1cc(NCc2cc3cc(Cl)c(OCC4CCOCC4)cc3[nH]c2=O)ccc1C#N` [Compound I-63, 4-({[6-chloro-7-(oxan-4-ylmethoxy)-2-oxo-1,2-dihydroquinolin-3-yl]methyl}amino)-2-methoxybenzonitrile] are 0.01 to 0.1 µM and above 1 µM. Taken in the same sequence, the figures for `COc1cc(NCc2cc3cc(Cl)c(OCCN4CCN(S(C)(=O)=O)CC4)cc3[nH]c2=O)ccc1C#N` [Compound I-64, 4-[({6-chloro-7-[2-(4-methanesulfonylpiperazin-1-yl)ethoxy]-2-oxo-1,2-dihydroquinolin-3-yl}methyl)amino]-2-methoxybenzonitrile] were 0.01 to 0.1 µM and 0.1 to 1 µM.

With `COc1cc(NCc2cc3cc(Cl)c(OC[C@H]4CCOC4)cc3[nH]c2=O)ccc1C#N` [Compound I-65, 4-[({6-chloro-2-oxo-7-[(3S)-oxolan-3-ylmethoxy]-1,2-dihydroquinolin-3-yl}methyl)amino]-2-methoxybenzonitrile], the IC50 is 0.01 to 0.1 µM in assay [1] and above 1 µM in assay [2]. As for `COc1cc(NCc2cc3cc(Cl)c(OC4CCN(C)CC4)cc3[nH]c2=O)ccc1C#N` [Compound I-66, 4-[({6-chloro-7-[(1-methylpiperidin-4-yl)oxy]-2-oxo-1,2-dihydroquinolin-3-yl}methyl)amino]-2-methoxybenzonitrile], the IC50 in assay [1] is 0.01 to 0.1 µM; in assay [2], above 1 µM.

Take `COc1cc(NCc2cc3cc(Cl)c(OCc4ccnc(C)c4)cc3[nH]c2=O)ccc1C#N` [Compound I-73, 4-[({6-chloro-7-[(2-methylpyridin-4-yl)methoxy]-2-oxo-1,2-dihydroquinolin-3-yl}methyl)amino]-2-methoxybenzonitrile]: the IC50 in assay [1] was 0.01 to 0.1 µM. The same measure, in the same setting: then `CCOCCOc1cc2[nH]c(=O)c(CNc3ccc(C#N)c(OC)c3)cc2cc1Cl` [Compound I-93, 4-({[6-chloro-7-(2-ethoxyethoxy)-2-oxo-1,2-dihydroquinolin-3-yl]methyl}amino)-2-methoxybenzonitrile], with 0.1 to 1 µM; and `COc1cc(NCc2cc3cc(Cl)cc(O)c3[nH]c2=O)ccc1C#N` [Compound I-96, 4-{[(6-chloro-8-hydroxy-2-oxo-1,2-dihydroquinolin-3-yl)methyl]amino}-2-methoxybenzonitrile], with 0.1 to 1 µM.
